TGI data for twelve compounds are collected here from PubChem BioAssay (NCI).

Structures are written as SMILES.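 Cultured in 96-well plates, cells were exposed to test compound for 48 hours across five concentrations. TGI: total growth inhibition.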 A value given as a limit tells only on which side of the number the result lay.

Some test systems named below: DLD-1 colon; SK-OV-3 ovarian; SNB-78 CNS; M19-MEL melanoma; K-562 leukemia; HT29 colon; KM20L2 colon; OVCAR-5 ovarian; LXFL 529 NSCLC; RXF 393 renal; DMS 273 small cell lung; NCI-H226 lung; RPMI-8226 leukemia.
Test in all cases: NCI-60 cell line screen, 48 h

Consider `O=C(N/C(=C\c1ccc([N+](=O)[O-])cc1)c1nc2ccc(Cl)cc2[nH]1)c1ccccc1`, for which the TGI in the assay on DLD-1 colon was 31.3 µM; in the assay on SK-OV-3 ovarian, 94.6 µM; in the assay on SNB-78 CNS, more than 100 µM; with M19-MEL melanoma, more than 100 µM; in the assay with K-562 leukemia, 52.7 µM; in the assay with HT29 colon, 43.9 µM. Moreover, the TGI in the assay on KM20L2 colon stood at 50.9 µM; in the assay on OVCAR-5 ovarian, 74.5 µM; with LXFL 529 NSCLC it was 70.7 µM; in the assay on RXF 393 renal, 58.3 µM.
For the compound `S=P(c1ccccc1)(c1ccccc1)C1(C2(P(=S)(c3ccccc3)c3ccccc3)CC2)CC1`, the TGI with DLD-1 colon, in the assay on SNB-78 CNS, in the assay with M19-MEL melanoma, in the assay with K-562 leukemia, in the assay with HT29 colon and in the assay on DMS 273 small cell lung was more than 100 µM throughout. In addition, the TGI with KM20L2 colon, in the assay on OVCAR-5 ovarian, in the assay with NCI-H226 lung, in the assay on LXFL 529 NSCLC and in the assay with RXF 393 renal was more than 100 µM throughout.
Consider `C[C@]12CC(C#N)C(=O)C(O)=C1CC[C@@H]1C2CC[C@@]2(C)C1CC[C@@H]2O` (some centres undefined), for which the TGI in the assay with DLD-1 colon, in the assay on RPMI-8226 leukemia, in the assay with SK-OV-3 ovarian, in the assay with SNB-78 CNS, in the assay on K-562 leukemia and with HT29 colon was more than 100 µM in each case. Also, the TGI in the assay with DMS 273 small cell lung is more than 100 µM; in the assay on KM20L2 colon it was more than 100 µM; with OVCAR-5 ovarian, more than 100 µM; with NCI-H226 lung it was more than 100 µM; in the assay with LXFL 529 NSCLC it was more than 100 µM; with RXF 393 renal, 44.4 µM.
Consider `COc1cc2ccc(/C(C)=N/OC(C)=O)cc2cc1OC`, for which the TGI in the assay with RPMI-8226 leukemia, in the assay with SK-OV-3 ovarian, in the assay with SNB-78 CNS, in the assay with M19-MEL melanoma, in the assay with K-562 leukemia and with HT29 colon was more than 100 µM in each case. For the same compound, the TGI in the assay with DMS 273 small cell lung, in the assay with KM20L2 colon, in the assay on OVCAR-5 ovarian, in the assay with NCI-H226 lung, with LXFL 529 NSCLC and in the assay on RXF 393 renal was more than 100 µM in each case.
For the compound `CCN(CC)CCOC(=O)/C(=C/c1ccc(OC)cc1)c1cc(OC)c(OC)c(OC)c1`, the TGI in the assay on DLD-1 colon is more than 100 µM; in the assay with RPMI-8226 leukemia, 52.5 µM; in the assay with SNB-78 CNS it was more than 100 µM; in the assay with M19-MEL melanoma, more than 100 µM; in the assay on K-562 leukemia, 27.9 µM; in the assay on HT29 colon, 18 µM. For the same compound, the TGI was determined as 23.4 µM with DMS 273 small cell lung; 24.6 µM in the assay on KM20L2 colon; 43.7 µM with OVCAR-5 ovarian; 54.5 µM with NCI-H226 lung; 23.1 µM in the assay with LXFL 529 NSCLC; 5 µM in the assay on RXF 393 renal.
As to `c1ccc2c(c1)nnn2CNc1ccc(N2CCOCC2)cc1`, the TGI in the assay with DLD-1 colon, in the assay on RPMI-8226 leukemia, in the assay on SK-OV-3 ovarian, with SNB-78 CNS, in the assay on M19-MEL melanoma and in the assay with K-562 leukemia was more than 100 µM each time. The TGI with HT29 colon, in the assay with DMS 273 small cell lung, in the assay with KM20L2 colon, in the assay with NCI-H226 lung, in the assay on LXFL 529 NSCLC and in the assay with RXF 393 renal was more than 100 µM in each case.
In the case of `NC1=NC(c2ccccc2)CC(c2cc(Cl)cc(Br)c2O)=N1` (centres undefined), the TGI in the assay on DLD-1 colon turned out to be 25.8 µM; with RPMI-8226 leukemia it was 33.6 µM; with SK-OV-3 ovarian, 42.7 µM; with SNB-78 CNS, 47.7 µM; in the assay on M19-MEL melanoma it was 28.2 µM; in the assay with K-562 leukemia it was 17.4 µM. Also, the TGI in the assay with HT29 colon amounted to 27 µM; in the assay on DMS 273 small cell lung it was 23.2 µM; in the assay with KM20L2 colon, 30.8 µM; with OVCAR-5 ovarian, 34.4 µM; in the assay with NCI-H226 lung it was 34.3 µM; in the assay on LXFL 529 NSCLC, 31.3 µM. Further, the TGI in the assay on RXF 393 renal stood at 17 µM.
Turning to `COc1cc2ccnc3c2c(c1OC)CC1CC(O)C(OC)CC31` (centres undefined), the TGI in the assay with DLD-1 colon, in the assay with RPMI-8226 leukemia, with SK-OV-3 ovarian, in the assay with SNB-78 CNS, in the assay on M19-MEL melanoma and in the assay on K-562 leukemia was more than 100 µM throughout. The TGI in the assay with HT29 colon, with DMS 273 small cell lung, with KM20L2 colon, in the assay on OVCAR-5 ovarian, in the assay with NCI-H226 lung and in the assay on LXFL 529 NSCLC was more than 100 µM in each case.
Consider `C=CCCC(C)N(C(=O)OC(C)(C)C)S(=O)(=O)c1ccc(C)cc1` (centres undefined), for which the TGI with DLD-1 colon, in the assay with RPMI-8226 leukemia, in the assay on SK-OV-3 ovarian, in the assay on SNB-78 CNS, in the assay with K-562 leukemia and in the assay on HT29 colon was more than 100 µM in each case. Further, the TGI with DMS 273 small cell lung, in the assay on KM20L2 colon, in the assay on OVCAR-5 ovarian, in the assay on NCI-H226 lung and in the assay with LXFL 529 NSCLC was more than 100 µM in each case.
`C/C(=N\NS(=O)(=O)c1ccc(C)cc1)c1c(O)cc(C)oc1=O`: the TGI with DLD-1 colon, in the assay on SK-OV-3 ovarian, in the assay on SNB-78 CNS, with M19-MEL melanoma, in the assay on K-562 leukemia and in the assay on HT29 colon was more than 100 µM throughout. Besides, the TGI in the assay with KM20L2 colon, in the assay with NCI-H226 lung and in the assay on LXFL 529 NSCLC was more than 100 µM in each case.
Regarding `CCOC(=O)CNC1C(NC(C)=O)C(OC)OC2COC(c3ccccc3)OC21` (centres undefined), the TGI in the assay on RPMI-8226 leukemia, with SK-OV-3 ovarian, in the assay with SNB-78 CNS, in the assay with M19-MEL melanoma, in the assay on K-562 leukemia and with HT29 colon was more than 100 µM in each case. The TGI in the assay on DMS 273 small cell lung, in the assay with KM20L2 colon, with OVCAR-5 ovarian, in the assay with NCI-H226 lung, with LXFL 529 NSCLC and in the assay on RXF 393 renal was more than 100 µM in each case.
Consider `CC(=O)O[C@H]1CCC2[C@@H]3CCC4Nc5c(cnn5-c5ccccc5)C[C@]4(C)C3CC[C@@]21C` (some centres undefined), for which the TGI with DLD-1 colon is more than 100 µM; in the assay with RPMI-8226 leukemia it was 46.2 µM; with SK-OV-3 ovarian it was 42.4 µM; with SNB-78 CNS, 63.4 µM; in the assay with M19-MEL melanoma it was 24.4 µM; in the assay with K-562 leukemia it was 74.3 µM. Besides, the TGI with HT29 colon was found to be 34.9 µM; in the assay with DMS 273 small cell lung, 14.4 µM; in the assay on KM20L2 colon it was 37.1 µM; with OVCAR-5 ovarian, 60.1 µM; in the assay with NCI-H226 lung, 27.8 µM; in the assay with LXFL 529 NSCLC, 58.5 µM. In the assay on RXF 393 renal, this compound showed a TGI of 24.6 µM.
